The results in this text go back to patent US8148391B2 (Cephalon, Inc., priority 2006, dated 2012).

Where two headings read alike, the source gives them in different places.

Test [1] addresses T1, c-Met (cytoplasmic domain) (Homo sapiens, UniProt P08581).
T1 construct: 10 ng/mL c-Met (cytoplasmic domain, Invitrogen Corporation #PV3143); purchased Invitrogen Corporation PV3143
Briefly: c-Met Kinase Assay (same methods as for ALK, with modifications). In kind it is biochemical. In short, it runs like this: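 Plates were coated with phospholipase C-γ substrate (10 μg/mL) in TBS, and the reaction was started with 10 ng/mL c-Met cytoplasmic domain and run 15 min at 37 °C. Phosphoproduct was detected with Eu-N1-labelled PT66 antibody. IC50 came from a variable-slope sigmoidal fit of percent inhibition vs log concentration.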

For test [2], the target named is T2, baculovirus-expressed ALK (Homo sapiens, UniProt Q9UM73).
T2 construct: host or cells: baculovirus expression system
T2 sequence (Q9UM73 19-1620): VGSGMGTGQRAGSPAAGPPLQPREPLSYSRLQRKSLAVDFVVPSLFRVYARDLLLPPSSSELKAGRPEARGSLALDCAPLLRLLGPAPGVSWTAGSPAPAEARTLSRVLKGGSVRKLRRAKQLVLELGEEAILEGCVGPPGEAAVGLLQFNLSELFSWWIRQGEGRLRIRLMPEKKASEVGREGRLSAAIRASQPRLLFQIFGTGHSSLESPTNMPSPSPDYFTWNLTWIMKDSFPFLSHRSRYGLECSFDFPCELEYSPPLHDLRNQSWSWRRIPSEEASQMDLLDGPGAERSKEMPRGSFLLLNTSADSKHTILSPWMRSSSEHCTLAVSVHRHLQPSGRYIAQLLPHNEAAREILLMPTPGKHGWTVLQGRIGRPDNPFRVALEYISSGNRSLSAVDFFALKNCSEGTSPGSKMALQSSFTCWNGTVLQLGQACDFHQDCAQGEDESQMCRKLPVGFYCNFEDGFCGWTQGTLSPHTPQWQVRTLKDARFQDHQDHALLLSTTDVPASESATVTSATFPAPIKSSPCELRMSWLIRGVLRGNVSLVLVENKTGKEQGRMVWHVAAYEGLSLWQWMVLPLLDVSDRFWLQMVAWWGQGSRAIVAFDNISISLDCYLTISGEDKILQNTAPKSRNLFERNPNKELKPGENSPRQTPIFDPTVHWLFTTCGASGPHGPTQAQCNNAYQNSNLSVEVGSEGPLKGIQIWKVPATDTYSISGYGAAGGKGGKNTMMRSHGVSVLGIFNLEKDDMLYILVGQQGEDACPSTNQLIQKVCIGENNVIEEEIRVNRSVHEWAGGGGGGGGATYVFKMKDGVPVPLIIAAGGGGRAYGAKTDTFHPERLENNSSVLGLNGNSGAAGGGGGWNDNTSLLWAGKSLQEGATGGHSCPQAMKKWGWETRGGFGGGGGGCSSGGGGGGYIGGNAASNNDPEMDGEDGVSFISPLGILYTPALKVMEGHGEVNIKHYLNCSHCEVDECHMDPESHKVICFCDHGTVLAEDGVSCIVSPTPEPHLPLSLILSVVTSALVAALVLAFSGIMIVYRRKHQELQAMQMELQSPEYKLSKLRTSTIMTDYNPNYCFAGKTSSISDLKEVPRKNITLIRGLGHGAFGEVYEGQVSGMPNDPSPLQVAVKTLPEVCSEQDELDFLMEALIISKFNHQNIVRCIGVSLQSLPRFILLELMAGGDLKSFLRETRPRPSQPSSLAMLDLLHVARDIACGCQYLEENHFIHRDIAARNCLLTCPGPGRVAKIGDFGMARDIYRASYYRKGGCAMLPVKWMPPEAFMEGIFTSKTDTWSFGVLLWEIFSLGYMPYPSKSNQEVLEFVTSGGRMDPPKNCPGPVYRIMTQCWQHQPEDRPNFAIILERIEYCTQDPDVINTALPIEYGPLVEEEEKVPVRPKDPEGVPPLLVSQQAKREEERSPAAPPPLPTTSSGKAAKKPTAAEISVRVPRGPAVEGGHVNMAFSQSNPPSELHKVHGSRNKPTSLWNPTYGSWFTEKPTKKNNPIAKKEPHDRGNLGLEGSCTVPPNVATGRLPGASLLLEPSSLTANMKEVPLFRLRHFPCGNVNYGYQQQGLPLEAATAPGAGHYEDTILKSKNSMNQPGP
Briefly: ALK Kinase Assay (ELISA-type, time-resolved fluorescence). Format: biochemical. An outline of the steps:
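Plates coated with phospholipase C-γ substrate (10 μg/mL in TBS); reaction started with 30 ng/ml ALK and run 15 min at 37° C. Phosphorylated substrate detected with Eu-N1-labeled PT66 antibody. IC50 from sigmoidal variable-slope fit of percent inhibition vs log concentration.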
On the technique in general: ELISA stands for enzyme-linked immunosorbent assay.

The mark [3] stands for this setting: 1 μM ATP (Km level), 10 ng/mL c-Met, read-out: cMet Activity (c-Met kinase inhibition, IC50 class).
[4] abbreviates: 1 μM ATP (Km level), 30 ng/ml ALK, 37° C., 15 minutes, read-out: ALK Activity (ALK kinase inhibition, IC50 class).
[5] abbreviates: c-Met kinase inhibition, 1 μM ATP, read-out: cMet Activity.
Where [6] appears, read: ALK kinase inhibition, 1 μM ATP, read-out: ALK Activity.
Where [7] appears, read: c-Met kinase inhibition, 1 μM ATP (Km level), read-out: cMet Activity.
Setting [8] is: ALK kinase inhibition, 1 μM ATP (Km level), read-out: ALK Activity.
Setting [9] is: 1 μM ATP (Km level), read-out: cMet Activity (c-Met Kinase Inhibition, IC50).
The mark [10] stands for this setting: 1 μM ATP (Km level), read-out: ALK Activity (ALK Kinase Inhibition, IC50).

T1 sequence (P08581 956-1390 limits assumed): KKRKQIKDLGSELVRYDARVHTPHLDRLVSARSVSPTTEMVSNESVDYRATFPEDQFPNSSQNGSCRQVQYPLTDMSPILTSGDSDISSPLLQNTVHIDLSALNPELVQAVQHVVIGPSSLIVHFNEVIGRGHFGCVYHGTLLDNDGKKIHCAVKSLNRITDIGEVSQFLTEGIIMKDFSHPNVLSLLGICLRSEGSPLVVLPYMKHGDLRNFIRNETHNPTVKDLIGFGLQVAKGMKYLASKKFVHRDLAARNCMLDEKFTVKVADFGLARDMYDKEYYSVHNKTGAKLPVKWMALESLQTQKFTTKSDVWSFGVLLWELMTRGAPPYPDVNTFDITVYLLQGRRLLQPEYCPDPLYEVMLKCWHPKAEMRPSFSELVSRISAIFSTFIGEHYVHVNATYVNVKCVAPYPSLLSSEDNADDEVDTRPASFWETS

Regarding `COc1cc2c(cc1Nc1ncc(Cl)c(Nc3ccccc3S(=O)(=O)C(C)C)n1)CCC(N1CCN(C)CC1)CC2` (stereo not drawn) [Example 1100, 5-Chloro-N*2*-[3-methoxy-7-(4-methyl-piperazin-1-yl)-6,7,8,9-tetrahydro-5H-benzocyclohepten-2-yl]-N*4*-[2-(propane-2-sulfonyl)-phenyl]-pyrimidine-2,4-diamine], the IC50 in test [1] (setting [3]) was 1 to 10 µM; in test [2] (setting [4]), less than 0.1 µM.
As to `CNC(=O)c1ccc(Nc2nc(Nc3cc4c(cc3OC)CCN(CC(=O)N(C)C)CC4)ncc2Cl)c(OC)c1` [Example 1176, 4-[5-Chloro-2-(3-dimethylcarbamoylmethyl-8-methoxy-2,3,4,5-tetrahydro-1H-benzo[d]azepin-7-ylamino)-pyrimidin-4-ylamino]-3-methoxy-N-methyl-benzamide], the IC50 in test [1] (setting [3]) was greater than 10 µM; in test [2] (setting [4]), less than 0.1 µM.
For `C#CCNC(=O)c1cccc(F)c1Nc1nc(Nc2ccc3c(c2)N(C(=O)CN)CCCC3(C)C)ncc1Cl` [Example 1619, 2-{2-[1-(2-Amino-acetyl)-5,5-dimethyl-2,3,4,5-tetrahydro-1H-benzo[b]azepin-8-ylamino]-5-chloro-pyrimidin-4-ylamino}-3-fluoro-N-prop-2-ynyl-benzamide], the IC50 in test [1] (setting [5]) is less than 0.1 µM; in test [2] (setting [6]), 0.1 to 1 µM.
As to `CCN1CC2OC(C1)c1cc(Nc3ncc(Cl)c(Nc4ccccc4C(=O)NC)n3)ccc12` (stereo not drawn) [Example 61, 2-[5-Chloro-2-(10-ethyl-12-oxa-10-aza-tricyclo[6.3.1.0*2,7*]dodeca-2,4,6-trien-4-ylamino)-pyrimidin-4-ylamino]-N-methyl-benzamide], the IC50 in test [1] (setting [7]) is 0.1 to 1 µM; in test [2] (setting [8]) it was less than 0.1 µM.
Turning to `COCCN1CCc2ccc(Nc3ncc(Cl)c(Nc4ccccc4OCC(=O)O)n3)cc2CC1` [Example 1242, (2-{5-Chloro-2-[3-(2-methoxy-ethyl)-2,3,4,5-tetrahydro-1H-3-benzazepin-7-ylamino]-pyrimidin-4-ylamino}-phenoxy)-acetic acid], the IC50 was 0.1 to 1 µM in test [1] (setting [3]) and less than 0.1 µM in test [2] (setting [4]).
Take `CNC(=O)c1ccccc1Nc1nc(Nc2ccc3c(c2)CCNCC3)ncc1Cl` [Example 45, 2-[5-Chloro-2-(2,3,4,5-tetrahydro-1H-benzo[d]azepin-7-ylamino)-pyrimidin-4-ylamino]-N-methyl-benzamide]: the IC50 in test [1] (setting [7]) and in test [2] (setting [8]) was less than 0.1 µM in each case.
On to `CS(=O)(=O)Nc1ccccc1Nc1nc(Nc2ccc3c(c2)CNCCS3)ncc1Cl` [Example 518], for which the results for the IC50 in test [1] (setting [9]) and in test [2] (setting [10]) were 1 to 10 µM and less than 0.1 µM, respectively.
In the case of `CCN1CCc2cc(Nc3ncc(Cl)c(Nc4ccccc4C(=O)NC)n3)c(OC)cc2CC1=O` [Example 253, 2-[5-Chloro-2-(3-ethyl-8-methoxy-2-oxo-2,3,4,5-tetrahydro-1H-benzo[d]azepin-7-ylamino)-pyrimidin-4-ylamino]-N-methyl-benzamide], the figures for the IC50 in test [1] (setting [7]) and in test [2] (setting [8]) were 1 to 10 µM and less than 0.1 µM, respectively.
Taken in the same sequence, the figures for `COc1cc2c(cc1Nc1ncc(Cl)c(Nc3ccc(N4CCOCC4)cc3OC)n1)N(C)CCNC2` [Example 493, 5-Chloro-N*2*-(7-methoxy-1-methyl-2,3,4,5-tetrahydro-1H-benzo[e][1,4]diazepin-8-yl)-N*4*-(2-methoxy-4-morpholin-4-yl-phenyl)-pyrimidine-2,4-diamine] were greater than 10 µM and less than 0.1 µM.
Turning to `C#CCNC(=O)c1cccc(F)c1Nc1nc(Nc2ccc3c(c2)OCCCN3C(=O)OC2CCCN(C)C2)ncc1Cl` (stereo not drawn) [Example 1439, 3-[5-Chloro-4-(2-fluoro-6-prop-2-ynylcarbamoyl-phenylamino)-pyrimidin-2-ylamino]-7,8-dihydro-6H-5-oxa-9-aza-benzocycloheptene-9-carboxylic acid 1-methyl-piperidin-3-yl ester], the IC50 in test [1] (setting [5]) and in test [2] (setting [6]) was 0.1 to 1 µM in each case.
Turning to `CS(=O)(=O)Nc1ccccc1Nc1nc(Nc2ccc3c(c2)CNC(=O)NC3)ncc1Cl` [Example 225, N-{2-[5-Chloro-2-(3-oxo-2,3,4,5-tetrahydro-1H-benzo[e][1,3]diazepin-7-ylamino)-pyrimidin-4-ylamino]-phenyl}-methanesulfonamide], the IC50 in test [1] (setting [7]) was 1 to 10 µM; in test [2] (setting [8]), less than 0.1 µM.
In the case of `COc1ccc(Nc2nc(Nc3ccc4c(c3)C(C)(C)CCC(=O)N4C)ncc2Cl)c(-n2cccn2)c1` [Example 619, 7-[5-Chloro-4-(4-methoxy-2-pyrazol-1-yl-phenylamino)-pyrimidin-2-ylamino]-1,5,5-trimethyl-1,3,4,5-tetrahydro-benzo[b]azepin-2-one], the figures for the IC50 in test [1] (setting [9]) and in test [2] (setting [10]) were 0.1 to 1 µM and less than 0.1 µM, respectively.
On to `CCN(CCO)Cc1cc(Nc2nc(Nc3cc4c(cc3OC)CCN(CC(=O)N(C)C)CC4)ncc2Cl)ccc1F` [Example 735, 2-{7-[5-Chloro-4-(3-{[ethyl-(2-hydroxy-ethyl)-amino]-methyl}-4-fluoro-phenylamino)-pyrimidin-2-ylamino]-8-methoxy-1,2,4,5-tetrahydro-benzo[d]azepin-3-yl}-N,N-dimethyl-acetamide], for which the IC50 is greater than 10 µM in test [1] (setting [9]) and less than 0.1 µM in test [2] (setting [10]).
`COc1cc2c(cc1Nc1ncc(Cl)c(Nc3ccccc3OC)n1)CCN(C(=O)CN(C)C)CC2` [Example 1131, 1-{7-[5-Chloro-4-(2-methoxy-phenylamino)-pyrimidin-2-ylamino]-8-methoxy-1,2,4,5-tetrahydro-benzo[d]azepin-3-yl}-2-dimethylamino-ethanone]: the IC50 in test [1] (setting [3]) is greater than 10 µM; in test [2] (setting [4]), less than 0.1 µM.
Taken in the same sequence, the figures for `CCNC(=O)c1cccc(F)c1Nc1nc(Nc2ccc3c(c2)C(C)(C)CCC(=O)N3)ncc1Cl` [Example 1365, 2-[5-Chloro-2-(5,5-dimethyl-2-oxo-2,3,4,5-tetrahydro-1H-benzo[b]azepin-7-ylamino)-pyrimidin-4-ylamino]-N-ethyl-3-fluoro-benzamide] were less than 0.1 µM and less than 0.1 µM.
On to `CC1(C)CCCOc2c(Nc3ncc(Cl)c(Nc4ccccc4-n4cccn4)n3)cccc21` [Example 885, 5-Chloro-N*2*-(5,5-dimethyl-2,3,4,5-tetrahydro-benzo[b]oxepin-9-yl)-N*4*-(2-pyrazol-1-yl-phenyl)-pyrimidine-2,4-diamine], for which the IC50 is greater than 10 µM in test [1] (setting [9]) and 0.1 to 1 µM in test [2] (setting [10]).
`CN(CCC#N)c1cccc(F)c1Nc1nc(Nc2ccc3c(c2)C(C)(C)CCC(=O)N3)ncc1Cl` [Example 1266, 3-({2-[5-Chloro-2-(5,5-dimethyl-2-oxo-2,3,4,5-tetrahydro-1H-1-benzazepin-7-ylamino)-pyrimidin-4-ylamino]-3-fluoro-phenyl}-methyl-amino)-propionitrile]: the IC50 in test [1] (setting [3]) was 1 to 10 µM; in test [2] (setting [4]), less than 0.1 µM.
Take `COc1cc2c(cc1Nc1ncc(Cl)c(Nc3ccccc3OC)n1)CCN(CCS(C)(=O)=O)CC2` [Example 1132, 5-Chloro-N*2*-[3-(2-methanesulfonyl-ethyl)-8-methoxy-2,3,4,5-tetrahydro-1H-benzo[d]azepin-7-yl]-N*4*-(2-methoxy-phenyl)-pyrimidine-2,4-diamine]: the IC50 in test [1] (setting [3]) is greater than 10 µM; in test [2] (setting [4]), less than 0.1 µM.
As to `COc1cc(N2CCOCC2)ccc1Nc1nc(Nc2cccc3c2OCCCC3)ncc1Cl` [Example 862, 5-Chloro-N*4*-(2-methoxy-4-morpholin-4-yl-phenyl)-N*2*-(2,3,4,5-tetrahydrobenzo[b]oxepin-9-yl)pyrimidine-2,4-diamine], the IC50 was greater than 10 µM in test [1] (setting [9]) and less than 0.1 µM in test [2] (setting [10]).
Take `CCCNC(=O)c1ccccc1Nc1nc(Nc2ccc3c(c2)CCN(CCOC)CC3)ncc1Cl` [Example 1023, 2-{5-Chloro-2-[3-(2-methoxy-ethyl)-2,3,4,5-tetrahydro-1H-benzo[d]azepin-7-ylamino]-pyrimidin-4-ylamino}-N-propyl-benzamide]: the IC50 in test [1] (setting [3]) was 0.1 to 1 µM; in test [2] (setting [4]) it was less than 0.1 µM.
As to `COCCN1CCc2ccc(Nc3ncc(Cl)c(Nc4c(OC)cccc4C(=O)NCC#N)n3)cc2CC1` [Example 1063, 2-{5-Chloro-2-[3-(2-methoxy-ethyl)-2,3,4,5-tetrahydro-1H-benzo[d]azepin-7-ylamino]-pyrimidin-4-ylamino}-N-cyanomethyl-3-methoxy-benzamide], the IC50 in test [1] (setting [3]) was 0.1 to 1 µM; in test [2] (setting [4]), 1 to 10 µM.
With `NC(=O)[C@@H]1[C@H](Nc2nc(Nc3ccc4c(c3)CCC(N3CCOCC3)CC4)ncc2Cl)[C@H]2C=C[C@@H]1C2` (single isomer, unassigned) [Example 682], the IC50 in test [1] (setting [9]) was 0.1 to 1 µM; in test [2] (setting [10]), less than 0.1 µM.
Taken in the same sequence, the figures for `COc1cc(N2CCOCC2)ccc1Nc1nc(Nc2ccc3c(c2)CCC(N2CCOCC2)CC3)ncc1Cl` (stereo not drawn) [Example 865, 5-Chloro-N*4*-(2-methoxy-4-morpholin-4-yl-phenyl)-N*2*-(7-morpholin-4-yl-6,7,8,9-tetrahydro-5H-benzocyclohepten-2-yl)-pyrimidine-2,4-diamine] were 1 to 10 µM and less than 0.1 µM.
Consider `CN1C(=O)OCCc2cc(Nc3ncc(Cl)c(Nc4c(F)cccc4OCCO)n3)ccc21` [Example 1732, 2-{5-Chloro-4-[2-fluoro-6-(2-hydroxy-ethoxy)-phenylamino]-pyrimidin-2-ylamino}-5-methyl-8,9-dihydro-5H-7-oxa-5-aza-benzocyclohepten-6-one], for which the IC50 in test [1] (setting [5]) and in test [2] (setting [6]) was less than 0.1 µM each time.
